Where a name gives a salt, the structure may show the parent alone.
Tests used:
[1] = Acute toxicity test (mouse, oral administration); settings: in vivo, male ICR mice, fasted 18 hours
Procedure: Tests were made using groups each comprising five male ICR strain mice weighing 30 to 35 g and being kept under a fast for 18 hours. The compound to be tested was suspended in a 1% tragacanth solution. After the concentration of the suspensions was adjusted in a volume of 40 ml/kg, the compound was administered orally to the mouse.

[2] = tested on: blood flow of the circumflex branch of left coronary artery (dog); test: Increasing activity of coronary blood flow in anesthetized dogs; type: in vivo, dog (mongrel); settings: Canis lupus familiaris, 0.1 mg/kg iv, read-out: Increase rate of coronary blood flow
Procedure: Increasing activity of coronary blood flow
Male and female mongrel dogs weighing 8 to 17.5 kg were anesthetized with intravenous administration of sodium pentobarbital at a dosage of 30 mg/kg. Under artificial respiration the chest was opened on the left side at the level of the fourth intercostal space and the heart was exposed. The circumflex branch of left coronary artery just below the junction of the anterior descending branch of left coronary artery was isolated in a width of approximately 1 cm, and a flow probe was placed around this artery in order to measure the blood flow of the circumflex branch of left coronary artery by means of an electromagnetic flow meter. During the tests, systemic blood pressure was monitored, and data obtained from tests where the mean blood presure was less than 65 mmHg were excluded from the final data. The pharmaceutical compound to be tested was dissolved in physiological saline or 50% ethanol/50% physiological saline and the thus obtained solution was intravenously administered at a dosage of 1 ml/10 kg through a polyethylene catheter which had been provided within the left femoral vein. The increasing activity of the blood flow of the circumflex branch of left coronary artery was evaluated and expressed in terms of increase rate of the blood flow after the administration of the compound to that of before the administration of the compound.

[3] = tested on: spontaneously hypertensive rats (SHR), average blood pressure; test: Antihypertensive activity in spontaneously hypertensive rats; type: in vivo, rat (SHR); settings: oral
Procedure: Antihypertensive activity
The compounds to be tested were administered orally to evaluate antihypertensive activity in spontaneously hypertensive rats (hereinafter SHR).
The average blood pressure of male SHR, 20 to 30 weeks old, was measured in a non-anestetised and non restraint state, through a catheter which had been chronically implanted into the abdominal aorta through the right fermoral artery, using an electromanometer. At the same time, the heart rate was measured by a tachometer triggered by the pulse pressure. The compound to be tested was suspended in a 1% tragacanth solution. After the concentration of the suspensions was adjusted in a volume of 5 ml/kg, the compound was administered orally to the SHR. The blood pressure and heart rate were measured 0.5, 1, 3, 6 and 24 hours after the administration.

[4] = tested on: calcium induced contraction of the isolated thoracic aorta in rats; test: Calcium antagonistic activity: relaxation of calcium induced contraction of isolated thoracic aorta; type: cell-based, rat (male Wistar strain); settings: spiral specimen of rat thoracic aorta, 80 mM potassium, 10 mM Ca++; relaxing activity; read-out: Minimum effective concentration
Procedure: Calcium antagonistic activity
Calcium antagonistic activity of the present compound was investigated by observing the effects on the calcium induced contraction of the isolated thoracic aorta in rats.
A piece of thoracic aorta was isolated from male Wistar strain rats weighing 350-450 g in order to prepare a spiral specimen. This specimen was suspended in a Krebs-Henseleit solution free from calcium. The contraction was evoked by an application of CaCl2 in the presence of 80 mM potassium so as to adjust the solution at a concentration of 10 mM Ca^++. The present compound to be tested was applied to the specimen which had been maximally contracted and was evaluated for its relaxing activity.

[5] = tested on: acetylcolinesterase; settings: Indian J. Pharm., 33, 80 (1971); cited from earlier work

SMILES	LD50 [1] [mg/kg]	change in vivo at 0.1 mg/kg [2] [%]	minimal effective concentration [4] [µM]	further results
COc1ccc([C@@H]2Sc3ccccc3N(CCN(C)C)C(=O)[C@@H]2OC(C)=O)cc1 [diltiazem, reference compound]	650	91.2	0.3	Increase rate of average blood pressure after administration, after 1 hour ([3]; 30 mg/kg): -8%; Increase rate of average blood pressure after administration, after 3 hours ([3]; 30 mg/kg): 0%; Increase rate of average blood pressure after administration, after 1 hour ([3]; 100 mg/kg): -28%; Increase rate of average blood pressure after administration, after 3 hours ([3]; 100 mg/kg): -14%
CCN(CC)CCn1c(Cc2cc(OC)ccc2OC)nc2ccccc2c1=O [Compound 13]	700	32.7	3	–
COc1ccc(Cc2nc3ccc(OC(C)C)cc3c(=O)n2CCN(C)C)cc1 [Compound 50]	700	–	0.3	Increase rate of average blood pressure after administration, after 1 hour ([3]; 10 mg/kg): -17%; Increase rate of average blood pressure after administration, after 3 hours ([3]; 10 mg/kg): -7%
COc1ccc(OC)c(Cc2nc3ccc(OC(C)C)cc3c(=O)n2CCCN(C)CCc2ccc(OC)c(OC)c2)c1 [Compound 103]	–	–	0.1	–
CCC(C)Oc1ccc2nc(Cc3cc(OC)ccc3OC)n(CCN(C)C)c(=O)c2c1 (stereo not shown) [Compound 63]	1200	77.3	0.3	–
CCN(CC)CCn1c(Cc2cc(OC)ccc2OC)nc2ccc(I)cc2c1=O [Compound 26]	–	–	1	–
COc1ccc(OC)c(Cc2nc3ccc(C)cc3c(=O)n2CCN(C)CCc2ccc(OC)c(OC)c2)c1 [Compound 114]	–	–	0.1	–
CCN(CC)CCn1c(Cc2ccc(OCc3ccccc3)cc2)nc2ccccc2c1=O [Compound 20]	–	–	0.3	–
COc1ccc(OC)c(Cc2nc3ccc(C)cc3c(=O)n2CCN2CCCC2)c1 [Compound 31]	1000	42.5	1	–
CCC(C)Oc1ccc2nc(Cc3cc(OC)ccc3OC)n(CCCN(C)C)c(=O)c2c1 (stereo not shown) [Compound 64]	–	47.6	0.3	–
COc1ccc(OC)c(Cc2nc3ccc(OC(C)C)cc3c(=O)n2CCN(C)CCc2ccc(OC)c(OC)c2)c1 [Compound 102]	1000	53.6	0.03	Increase rate of average blood pressure after administration, after 1 hour ([3]; 10 mg/kg): -11%; Increase rate of average blood pressure after administration, after 3 hours ([3]; 10 mg/kg): -2%
COc1ccc(OC)c(Cc2nc3ccc(OC(C)C)cc3c(=O)n2CCCN(C)C)c1 [Compound 30, 2-(2,5-Dimethoxyphenylmethyl)-3-(3-dimetylaminopropyl)-6-isopropoxy-4(3H)-quinazolinone maleate]	–	–	0.3	–
CCN(CC)CCn1c(Cc2ccccc2OCc2ccccc2)nc2ccccc2c1=O [Compound 19]	–	–	0.3	–
COc1ccc(OC)c(Cc2nc3ccc(I)cc3c(=O)n2CCN(C)CCc2ccc(OC)c(OC)c2)c1 [Compound 116]	–	–	0.03	–
COc1ccc(OC)c(Cc2nc3ccccc3c(=O)n2CCN2CCCC2)c1 [Compound 15]	–	45.3	0.3	–
COc1ccc(Cc2nc3cc(OC)c(OC(C)C)cc3c(=O)n2CCN(C)C)cc1 [Compound 82]	750	–	–	Increase rate of average blood pressure after administration, after 1 hour ([3]; 10 mg/kg): -24%; Increase rate of average blood pressure after administration, after 3 hours ([3]; 10 mg/kg): -15%
CCCCN(CCCC)CCCn1c(C)nc2ccc(Cl)cc2c1=O [2-methyl-3-(3-dibutylaminopropyl)-6-chloro-4(3H)-quinazolinone]	–	–	–	inhibitive activity of acetylcolinesterase [5]: inhibitive activity of acetylcolinesterase
CCOc1ccc2nc(Cc3cc(OC)ccc3OC)n(CCN(C)CCc3ccc(OC)c(OC)c3)c(=O)c2c1 [Compound 121]	–	–	0.03	–
COc1ccc(OC)c(Cc2nc3ccc(OC(C)C)cc3c(=O)n2CCN(C)C)c1 [Compound 47]	750	95.4	0.1	Increase rate of average blood pressure after administration, after 1 hour ([3]; 10 mg/kg): -12%; Increase rate of average blood pressure after administration, after 3 hours ([3]; 10 mg/kg): -3%
COc1ccc(OC)c(Cc2nc3ccccc3c(=O)n2CCN(C)CCc2ccc(OC)c(OC)c2)c1 [Compound 93]	–	–	0.03	–
CCN(CC)CCCn1c(Cc2cc(OC)ccc2OC)nc2ccccc2c1=O [Compound 14]	–	42.7	1	–

Source: patent US4668682A, “2-Phenylalkyl-3-aminoalkyl-4(3H)-quinazolinone compound” (Mitsubishi Chemical Industries Limited, priority 1984, dated 1987)
